Measured values as given in patent US12215085B2 (priority 2019, dated 2025).

System: rats with common carotid artery occlusion-induced vascular dementia
Assay: Water maze test, common carotid artery occlusion-induced vascular dementia rats
Type: in vivo, rat
Settings: succinate; for orientation angle for reaching the platform / speed for reaching the platform / swimming path length for reaching the platform / time for reaching the platform: x ± s; for Average speed / Number of crossing the platform / Orientation angle / Swimming path length in the platform area/total swimming path length × 100% / Time in the platform area / Time in the platform quadrants: Day 7
Excerpt: A rat blood vessel dementia model was made according to the references [ZHAO Xian-lin, FANG Xiu-bin, LI Dong-pei. Establishment of Vascular Dementia Model in Rats, J Chin Med Univ, 2002, 31 (3): 166-168; WANG Yong-yan, Zhang Bo-li, Editor-in-chief. Modern Chinese Medicine Clinic and Research on Vascular Dementia, People's Medical Publishing House, October 2003, First Version 214]: Chloral hydrate 0.4 g/kg was intraperitoneally injected for anesthetizing rats, and bilateral common carotid arteries were isolated and ligated. The animals were fed for 16 weeks, divided into groups on the last 7 days, and administered. The normal control group and the model group were administrated through the intragastric route with distilled water by 0.5 ml/100 g, the positive control group was administrated through the intragastric route with donepezil hydrochloride by 1.75 mg/kg (equivalent to 3.85 times the clinical daily dosage of 5 mg/70 kg), the low, medium and high-dose groups of Crystal Form A of octahydroaminoacridine succinate were administrated through the intragastric route with Crystal Form A of octahydroaminoacridine succinate by 0.7, 1.4 and 2.8 mg/kg (equivalent to 0.96, 1.92 and 3.85 times the clinical daily dosage of 8 mg/70 kg). The water maze test and the step-down test were carried out after continuous administration for 7 days, and the administration was continued during the test period. The water maze test was continuously performed for 7 days, in the first 6 days, in four different water entry points of quadrants 1, 2, 3 and 4, the time, the swimming path length, the orientation angle and the average speed of the rat reaching the platform were measured, meanwhile, the strategy for reaching the platform adopted by rats was observed, on the 7th day, the platform was removed, the number of rats crossing the platform in 2 minutes, the residence time in the platform area, the residence time in the platform quadrants, the percentage of the swimming path length in the platform area quadrants to the total swimming path length, the average speed and the orientation angle were measured. After the water maze test was finished, the step-down test was performed, and the number of electric shocks (or called as the error number) received by each rat within 5 minutes was recorded as the learning performance. The test was performed again after 24 hours, namely, the memory retention test, and the latent period for stepping-down the platform for the first time and the error number in five minutes were recorded. After the step-down test was finished, the brain was taken quickly for pathological examination, and the pathological changes of the hippocampus and the cortex were observed.

[1] = Day 1, 0.7 mg/kg intragastric, 0.7 mg/kg
[2] = Day 1, 1.4 mg/kg intragastric, 1.4 mg/kg
[3] = Day 1, 2.8 mg/kg intragastric, 2.8 mg/kg
[4] = Day 2, 0.7 mg/kg intragastric, 0.7 mg/kg
[5] = Day 2, 1.4 mg/kg intragastric, 1.4 mg/kg
[6] = Day 2, 2.8 mg/kg intragastric, 2.8 mg/kg
[7] = Day 3, 0.7 mg/kg intragastric, 0.7 mg/kg
[8] = Day 3, 1.4 mg/kg intragastric, 1.4 mg/kg
[9] = Day 3, 2.8 mg/kg intragastric, 2.8 mg/kg
[10] = Day 4, 0.7 mg/kg intragastric, 0.7 mg/kg
[11] = Day 4, 1.4 mg/kg intragastric, 1.4 mg/kg
[12] = Day 4, 2.8 mg/kg intragastric, 2.8 mg/kg
[13] = Day 5, 0.7 mg/kg intragastric, 0.7 mg/kg
[14] = Day 5, 1.4 mg/kg intragastric, 1.4 mg/kg
[15] = Day 5, 2.8 mg/kg intragastric, 2.8 mg/kg
[16] = Day 6, 0.7 mg/kg intragastric, 0.7 mg/kg
[17] = Day 6, 1.4 mg/kg intragastric, 1.4 mg/kg
[18] = Day 6, 2.8 mg/kg intragastric, 2.8 mg/kg
[19] = 0.7 mg/kg intragastric, 0.7 mg/kg
[20] = 1.4 mg/kg intragastric, 1.4 mg/kg
[21] = 2.8 mg/kg intragastric, 2.8 mg/kg

In the case of `Nc1c2c(nc3c1CCCC3)CCCC2.O=C(O)CCC(=O)O` [Crystal Form K, 9-amino-1,2,3,4,5,6,7,8-octahydroacridine succinate], the “adopted strategy for reaching the platform (the peripheral type and the random type %)” value [1] is reported as 93.00%, the “orientation angle for reaching the platform” value [1] is reported as 68.46 ± 25.21 ° and the “speed for reaching the platform” value [1] is reported as 21.26 ± 4.78 cm/s. For the same compound, the “swimming path length for reaching the platform” value [1] was 1602.41 ± 583.25 cm, the “time for reaching the platform” value [1] was 75.36 ± 14.23 s and the “adopted strategy for reaching the platform (the peripheral type and the random type %)” value [2] was 86.50%. The “orientation angle for reaching the platform” value [2] was 69.28 ± 21.03 °, the “speed for reaching the platform” value [2] was 20.45 ± 9.24 cm/s and the “swimming path length for reaching the platform” value [2] was 1502.83 ± 613.11 cm. The “time for reaching the platform” value [2] was 73.45 ± 14.49 s, the “adopted strategy for reaching the platform (the peripheral type and the random type %)” value [3] was 79.00% and the “orientation angle for reaching the platform” value [3] was 70.38 ± 18.48 °. For the same compound, the “speed for reaching the platform” value [3] was 19.88 ± 6.76 cm/s, the “swimming path length for reaching the platform” value [3] was 1211.27 ± 259.82 cm and the “time for reaching the platform” value [3] was 70.25 ± 9.82 s. For the same compound, the “adopted strategy for reaching the platform (the peripheral type and the random type %)” value [4] was 83.50%, the “orientation angle for reaching the platform” value [4] was 60.47 ± 24.23 ° and the “speed for reaching the platform” value [4] was 21.66 ± 8.76 cm/s. The “swimming path length for reaching the platform” value [4] was 1242.31 ± 438.47 cm, the “time for reaching the platform” value [4] was 57.33 ± 17.88 s and the “adopted strategy for reaching the platform (the peripheral type and the random type %)” value [5] was 80.00%. For the same compound, the “orientation angle for reaching the platform” value [5] was 58.29 ± 17.83 °, the “speed for reaching the platform” value [5] was 24.28 ± 9.65 cm/s and the “swimming path length for reaching the platform” value [5] was 1219.38 ± 892.43 cm. For the same compound, the “time for reaching the platform” value [5] was 50.21 ± 20.11 s, the “adopted strategy for reaching the platform (the peripheral type and the random type %)” value [6] was 76.50% and the “orientation angle for reaching the platform” value [6] was 57.88 ± 17.43 °. The “speed for reaching the platform” value [6] was 28.24 ± 4.72 cm/s, the “swimming path length for reaching the platform” value [6] was 1377.38 ± 328.92 cm and the “time for reaching the platform” value [6] was 47.36 ± 14.52 s. For the same compound, the “adopted strategy for reaching the platform (the peripheral type and the random type %)” value [7] was 70.50%, the “orientation angle for reaching the platform” value [7] was 59.03 ± 16.89 ° and the “speed for reaching the platform” value [7] was 20.12 ± 8.22 cm/s. For the same compound, the “swimming path length for reaching the platform” value [7] was 749.48 ± 427.45 cm, the “time for reaching the platform” value [7] was 45.78 ± 10.33 s and the “adopted strategy for reaching the platform (the peripheral type and the random type %)” value [8] was 71.00%. For the same compound, the “orientation angle for reaching the platform” value [8] was 58.22 ± 10.34 °, the “speed for reaching the platform” value [8] was 21.34 ± 6.99 cm/s and the “swimming path length for reaching the platform” value [8] was 763.45 ± 414.55 cm. For the same compound, the “time for reaching the platform” value [8] was 44.29 ± 20.13 s, the “adopted strategy for reaching the platform (the peripheral type and the random type %)” value [9] was 65.50% and the “orientation angle for reaching the platform” value [9] was 55.11 ± 16.99 °. The “speed for reaching the platform” value [9] was 20.10 ± 6.82 cm/s, the “swimming path length for reaching the platform” value [9] was 644.62 ± 582.37 cm and the “time for reaching the platform” value [9] was 40.67 ± 13.41 s. The “adopted strategy for reaching the platform (the peripheral type and the random type %)” value [10] was 75.50%, the “orientation angle for reaching the platform” value [10] was 55.36 ± 19.61 ° and the “speed for reaching the platform” value [10] was 21.70 ± 10.21 cm/s. For the same compound, the “swimming path length for reaching the platform” value [10] was 788.25 ± 300.86 cm, the “time for reaching the platform” value [10] was 40.55 ± 16.73 s and the “adopted strategy for reaching the platform (the peripheral type and the random type %)” value [11] was 68.00%. For the same compound, the “orientation angle for reaching the platform” value [11] was 53.49 ± 14.67 °, the “speed for reaching the platform” value [11] was 20.28 ± 6.02 cm/s and the “swimming path length for reaching the platform” value [11] was 752.34 ± 467.22 cm. For the same compound, the “time for reaching the platform” value [11] was 39.57 ± 18.69 s, the “adopted strategy for reaching the platform (the peripheral type and the random type %)” value [12] was 62.50% and the “orientation angle for reaching the platform” value [12] was 50.35 ± 15.5 °. For the same compound, the “speed for reaching the platform” value [12] was 21.00 ± 5.91 cm/s, the “swimming path length for reaching the platform” value [12] was 703.47 ± 231.68 cm and the “time for reaching the platform” value [12] was 37.88 ± 17.67 s. The “adopted strategy for reaching the platform (the peripheral type and the random type %)” value [13] was 72.50%, the “orientation angle for reaching the platform” value [13] was 53.56 ± 14.56 ° and the “speed for reaching the platform” value [13] was 21.42 ± 7.22 cm/s. For the same compound, the “swimming path length for reaching the platform” value [13] was 664.56 ± 562.88 cm, the “time for reaching the platform” value [13] was 31.42 ± 17.35 s and the “adopted strategy for reaching the platform (the peripheral type and the random type %)” value [14] was 62.00%. For the same compound, the “orientation angle for reaching the platform” value [14] was 52.76 ± 19.40 °, the “speed for reaching the platform” value [14] was 21.26 ± 8.46 cm/s and the “swimming path length for reaching the platform” value [14] was 689.43 ± 267.98 cm. For the same compound, the “time for reaching the platform” value [14] was 34.62 ± 12.48 s, the “adopted strategy for reaching the platform (the peripheral type and the random type %)” value [15] was 58.50% and the “orientation angle for reaching the platform” value [15] was 53.49 ± 23.42 °. For the same compound, the “speed for reaching the platform” value [15] was 22.93 ± 6.31 cm/s, the “swimming path length for reaching the platform” value [15] was 642.45 ± 386.45 cm and the “time for reaching the platform” value [15] was 28.41 ± 8.73 s. For the same compound, the “adopted strategy for reaching the platform (the peripheral type and the random type %)” value [16] was 70.00%, the “orientation angle for reaching the platform” value [16] was 50.39 ± 22.30 ° and the “speed for reaching the platform” value [16] was 19.52 ± 14.27 cm/s. For the same compound, the “swimming path length for reaching the platform” value [16] was 523.46 ± 237.12 cm, the “time for reaching the platform” value [16] was 32.45 ± 21.25 s and the “adopted strategy for reaching the platform (the peripheral type and the random type %)” value [17] was 66.50%. The “orientation angle for reaching the platform” value [17] was 50.34 ± 20.04 °, the “speed for reaching the platform” value [17] was 22.54 ± 9.36 cm/s and the “swimming path length for reaching the platform” value [17] was 531.55 ± 169.37 cm. The “time for reaching the platform” value [17] was 28.21 ± 15.63 s, the “adopted strategy for reaching the platform (the peripheral type and the random type %)” value [18] was 54.00% and the “orientation angle for reaching the platform” value [18] was 46.37 ± 26.8 °. The “speed for reaching the platform” value [18] was 21.32 ± 7.46 cm/s, the “swimming path length for reaching the platform” value [18] was 502.78 ± 482.65 cm and the “time for reaching the platform” value [18] was 29.10 ± 17.83 s. For the same compound, the Average speed [19] was 23.62 ± 8.38 cm/s, the “Number of crossing the platform” value [19] was 5.67 ± 3.45 and the Orientation angle [19] was 27.88 ± 6.57 °. The “Swimming path length in the platform area/total swimming path length × 100%” value [19] was 26.88 ± 7.36%, the “Time in the platform area” value [19] was 2.87 ± 2.14 s and the “Time in the platform quadrants” value [19] was 35.61 ± 10.91 s. For the same compound, the Average speed [20] was 24.69 ± 5.76 cm/s, the “Number of crossing the platform” value [20] was 7.25 ± 2.45 and the Orientation angle [20] was 24.69 ± 8.21 °. The “Swimming path length in the platform area/total swimming path length × 100%” value [20] was 28.74 ± 8.90%, the “Time in the platform area” value [20] was 2.18 ± 2.34 s and the “Time in the platform quadrants” value [20] was 37.88 ± 12.37 s. For the same compound, the Average speed [21] was 25.45 ± 6.98 cm/s, the “Number of crossing the platform” value [21] was 7.49 ± 3.51 and the Orientation angle [21] was 23.57 ± 4.76 °. For the same compound, the “Swimming path length in the platform area/total swimming path length × 100%” value [21] was 27.39 ± 10.42%, the “Time in the platform area” value [21] was 2.56 ± 3.27 s and the “Time in the platform quadrants” value [21] was 34.52 ± 15.82 s.
